By IC50 is commonly meant the concentration needed to halve the response being measured.

A short description of this assay: Antagonist activity at CCR2 in human PBMC assessed as MCP1-induced chemotaxis.
In the case of `CCCCN1CCC(NC(=O)c2ccc(SC)cc2)C(NC(=O)CNC(=O)c2cc(C(F)(F)F)ccc2N)C1` (racemic) [(+/-)-2-amino-N-(2-(1-butyl-4-(4-(methylthio)benzamido)piperidin-3-ylamino)-2-oxoethyl)-5-(trifluoromethyl)benzamide], the IC50 amounted to 17.5 nM. To `CCCCN1CCC(NCc2ccc(SC)cc2)C(NC(=O)CNC(=O)c2cc(C(F)(F)F)ccc2N)C1` (racemic) [(+/-)-2-amino-N-(2-(1-butyl-4-(4-(methylthio)benzylamino)piperidin-3-ylamino)-2-oxoethyl)-5-(trifluoromethyl)benzamide] belongs 19 nM. To `CSc1ccc(C(=O)NC2CCN(C)CC2NC(=O)CNC(=O)c2cc(C(F)(F)F)ccc2N)cc1` (racemic) [(+/-)-2-amino-N-(2-(1-methyl-4-(4-(methylthio)benzamido)piperidin-3-ylamino)-2-oxoethyl)-5-(trifluoromethyl)benzamide] belongs 38.5 nM. `CSc1ccc(CNC2CCN(C)CC2NC(=O)CNC(=O)c2cc(C(F)(F)F)ccc2N)cc1` (racemic) [(+/-)-2-amino-N-(2-(1-methyl-4-(4-(methylthio)benzylamino)piperidin-3-ylamino)-2-oxoethyl)-5-(trifluoromethyl)benzamide]: the IC50 turned out to be 27.5 nM. To `CCCN1CCC(NCc2ccc(SC)cc2)C(NC(=O)CNC(=O)c2cc(C(F)(F)F)ccc2N)C1` (racemic) [(+/-)-2-amino-N-(2-(4-(4-(methylthio)benzylamino)-1-propylpiperidin-3-ylamino)-2-oxoethyl)-5-(trifluoromethyl)benzamide] belongs 5.4 nM. To `CSc1ccc(CNC2CCNCC2NC(=O)CNC(=O)c2cc(C(F)(F)F)ccc2N)cc1` (racemic) [(+/-)-2-amino-N-(2-(4-(4-(methylthio)benzylamino)piperidin-3-ylamino)-2-oxoethyl)-5-(trifluoromethyl)benzamide] belongs 285 nM.

Consider `CCCN1CCC(NC(=O)c2ccc(SC)cc2)C(NC(=O)CNC(=O)c2cc(N)cc(C(F)(F)F)c2)C1` (racemic) [(+/-)-3-amino-N-(2-(4-(4-(methylthio)benzamido)-1-propylpiperidin-3-ylamino)-2-oxoethyl)-5-(trifluoromethyl)benzamide], for which the IC50 came to 25 nM. The figure for `CCCN1CCC(NCc2ccc(SC)cc2)C(NC(=O)CNC(=O)c2cc(N)cc(C(F)(F)F)c2)C1` (racemic) [(+/-)-3-amino-N-(2-(4-(4-(methylthio)benzylamino)-1-propylpiperidin-3-ylamino)-2-oxoethyl)-5-(trifluoromethyl)benzamide] is 26 nM; for `CCCN1CCC(NCc2ccc(SC)cc2)C(NC(=O)CNC(=O)c2cc(C(F)(F)F)ccc2NC(=O)N2CCCC2)C1` (racemic) [(+/-)-N-(2-(2-(4-(4-(methylthio)benzylamino)-1-propylpiperidin-3-ylamino)-2-oxoethylcarbamoyl)-4-(trifluoromethyl)phenyl)pyrrolidine-1-carboxamide] it is 4.8 nM. For `CCCN1CCC(NCc2ccc(SC)cc2)C(NC(=O)CNC(=O)c2cc(C(F)(F)F)ccc2NC(=O)NC)C1` (racemic) [(+/-)-N-(2-(4-(4-(methylthio)benzylamino)-1-propylpiperidin-3-ylamino)-2-oxoethyl)-2-(3-methylureido)-5-(trifluoromethyl)benzamide], the IC50 came out at 8 nM.

Values taken from BindingDB's records for doi:10.1016/j.bmcl.2008.07.123 (Bristol-Myers Squibb, 2008).
